# Experimental data taken from patent US20100098791A1, “COMPOSITION FOR TREATING XEROSTOMIA OR DRY MOUTH” (priority 2007, published 2010).
# Experiment: Dentin loss under extreme erosion conditions, composition versus its three ingredients separately (Example 8)
# Design: species or system cow
# Conditions: 10 cycles: 5 min pre-treatment, 1% citric acid pH 2.3 for 3 min
# Method: The protective capacity of a mouthwash formulated with olive oil, trimethylglycine and xylitol in dentin subjected to extreme erosion conditions was analysed, compared to that of aqueous solutions of the three ingredients separately in the same concentrations used in the mouthwash tested. For the evaluation of effects a control was included consisting of distilled water.
# Incisive teeth extracted from a cow's jaw were used, which were immersed in a 0.5% thymol solution at room temperature. The teeth were sectioned at the cementum-enamel junction by means of a water-cooled diamond scalpel (Exakt, Norderstedt, Germany), and the crowns and roots were embedded in acrylic resin cylinders (Paladur, Heraeus Kulzer, Wehrheim, Germany). Radicular cementum was completely eliminated. […]
# Dentin loss was quantified performing profile or profilometric measurements (Mahr Perthometer, Göttingen, Germany). […] After the experiment the adhesive tapes were removed and the samples were analysed again. The average depth of the eroded surfaces was thus calculated with respect to basic surface profiles by means of specific software (Mahr Perthometer Concept 7.0, Mahr, Göttingen, Germany).
# Dentin loss was calculated (mean±standard deviation) for each group and statistically analysed by Student's t test followed by Bonferroni's t test for multiple comparisons (Statistica 6.0, Statsoft, Tulsa, USA).
row,SMILES,protective effect on dentin against erosion
1,"OC[C@@H](O)[C@H](O)[C@@H](O)CO [1% xylitol solution, xylitol]",did not demonstrate any protective effect
2,"C[N+](C)(C)CC(=O)[O-] [2% trimethylglycine solution, trimethylglycine]",did not demonstrate any protective effect
